Measurements as given in paper PMC3513558 (European journal of medicinal chemistry, 2012).
Entries after “also recorded” stand apart in the source; their conditions may differ.

Biological target: intracellular HCV NS5B RdRp activity in BHK-NS5B-FRLuc reporter cells (Hepatitis C virus genotype 1b, UniProt P26663)
Test: BHK-NS5B-FRLuc reporter assay, intracellular NS5B RdRp activity
Type: cell-based
Conditions: 100 µM, 42 hours, RLuc/FLuc vs DMSO

Chain of intracellular HCV NS5B RdRp activity in BHK-NS5B-FRLuc reporter cells (P26663 2420-3010): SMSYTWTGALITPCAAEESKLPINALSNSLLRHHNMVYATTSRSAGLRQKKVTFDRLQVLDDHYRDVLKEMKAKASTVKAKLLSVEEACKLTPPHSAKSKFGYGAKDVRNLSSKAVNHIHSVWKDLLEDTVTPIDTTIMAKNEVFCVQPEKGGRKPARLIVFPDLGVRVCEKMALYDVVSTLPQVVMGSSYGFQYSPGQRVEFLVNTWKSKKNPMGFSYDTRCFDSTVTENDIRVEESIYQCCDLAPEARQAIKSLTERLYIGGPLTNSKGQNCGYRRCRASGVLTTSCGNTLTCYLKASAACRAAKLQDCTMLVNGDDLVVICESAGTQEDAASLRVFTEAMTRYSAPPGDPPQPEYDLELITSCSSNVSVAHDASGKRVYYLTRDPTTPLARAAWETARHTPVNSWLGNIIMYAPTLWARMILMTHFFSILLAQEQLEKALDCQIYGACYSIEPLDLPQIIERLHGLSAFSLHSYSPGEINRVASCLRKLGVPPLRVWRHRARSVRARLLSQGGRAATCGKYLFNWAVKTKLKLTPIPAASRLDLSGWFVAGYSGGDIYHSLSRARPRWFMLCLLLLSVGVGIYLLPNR

Cc1cc(O)c(C(c2ccc(Cl)c(Cl)c2)c2c(O)cc(C)oc2=O)c(=O)o1 [Compound 8, 3,3'-[(3,4-Dichlorophenyl)methylene]bis(4-hydroxy-6-methyl-2H-pyran-2-one)]
% Inhibition of intracellular NS5B RdRp activity: did not inhibit; also recorded: No inhibition
